Test results as given in publication PMC10610379, “Epidrugs as Promising Tools to Eliminate Plasmodium falciparum Artemisinin-Resistant and Quiescent Parasites” (Pharmaceutics, 2023).
“And” between values parts separate entries of the source, which are not always exact repeats. Equal values may be shown once. Read-outs that look alike come from different tables or passages of the source.

Legend:
[1] = system: Plasmodium falciparum F32-TEM (artemisinin-sensitive twin line); assay: Standard chemosensitivity assay (SYBR Green I), F32-TEM; assay type: cell-based; settings: Plasmodium falciparum, read-out: Antiplasmodial Activity: IC50, F32-TEM
Description: (§1) They differ by eight mutations in seven genes (PF3D7_0110400, PF3D7_1343700, PF3D7_0213400, PF3D7_1115700, PF3D7_1302100, PF3D7_1459600, PF3D7_1464500) among them the M476I mutation on the kelch13 gene. F32-ART and F32-TEM strains have RSA^0–3 h values up to 12% and less than 0.1%, respectively. […] Both strains were cultured, in the same conditions, according to the Trager and Jensen protocol with modifications. Briefly, parasites were cultivated in RPMI-1640 medium (Biowest) at 2% hematocrit in human red blood cells and 5% human serum (EFS, French Blood Bank) under 5% CO2 in a humid atmosphere at 37 °C.
(§2) The antimalarial activities of the compounds were evaluated on both strains. […] Antimalarial activities were determined with the SYBR Green I method. Each drug concentration was tested in triplicate. The parasites were incubated with the drugs for 48 h. Plates were read on a BioTek FLX800 Microplate Fluorescence Reader (Bio-Tek instruments, Winooski, VT, USA) (λexcitation = 485 nm, λemission = 528 nm). Control parasite culture (i.e., RPMI with 0.5% DMSO) was referred to as 100% growth. IC50 and IC90 values were determined using GraphPad Prism version 7.05 (GraphPad Software, San Diego, CA, USA). Results were the mean of 3 independent experiments. When it is relevant, statistical significance between results obtained with both parasite strains was determined by a Mann–Whitney test using GraphPad Prism version 7.05.

[2] = Cytotoxicity evaluation by MTT assay; assay type: cell-based; settings: monkey, Vero cells, * mean of 2 experiments
Description: The cytotoxicity of all newly synthesized compounds was evaluated on the Vero cell lines (isolated from monkey kidney cells, gift from the Faculty of Pharmacy, Toulouse, France) by MTT assay according to Mosmann with slight modifications. Briefly, cells in MEM medium supplemented with 10% fetal calf serum, 2 mM L-glutamine, antibiotics (100 U/mL penicillin and 100 µg/mL streptomycin), and NEAA 1X, were seeded in 96-well plates. After a 24-h incubation at 37 °C and 5% CO2 in a humidified atmosphere, compounds were added with concentrations ranging from 5 nM to 50 μM in duplicate. […] The security index was calculated as the ratio of cytotoxicity/antiplasmodial activity.

[3] = system: Plasmodium falciparum F32-ART (artemisinin-resistant strain); assay: Standard chemosensitivity assay (SYBR Green I), F32-ART; assay type: cell-based; settings: for IC50: Plasmodium falciparum, read-out: Antiplasmodial Activity: IC50, F32-ART; for Selectivity Index CC50/IC50: ratio cytotoxicity (mammalian cell type of the CC50)/antiplasmodial activity on F32-ART
Description: as §1, §2

H3K4me1 = assay: Immunoblotting, histone mark abundance in F32-ART parasites; assay type: cell-based, Plasmodium falciparum; settings: 700nM DHA alone, F32-ART ring stage; 3 replicates (Fig 3D)
Description: (§3) Abundance of methylated and acetylated histone was determined in parasite cultures in different conditions: “not-treated”, “DHA 24 h”, “DHA 6 h/DHA 24 h” and “DHA 6 h/DHA + compound to be tested 24 h”. At the end of the treatments, parasite cultures were washed in RPMI-1640 and then twice in PBS 1× before red blood cell lysis with 0.075% saponin (Sigma-Aldrich) in PBS. Parasite ghosts were washed 3 times in PBS before incubating the ghosts with E1A lysis buffer (50 mM Hepes pH 7.5; 250 mM NaCl; 5 mM EDTA; 0.1% Triton X-100, 1 mM DTT, 0.2 mM PMSF supplemented with complete Mini EDTA-free protease inhibitor cocktail (Roche®, Basel, Switzerland)) for 15 min. Ghosts were then sonicated for 3 × 15s ON/OFF cycles to shear parasite membranes. Debris were pelleted by centrifuging for 15 min at 13,800× g and 4 °C, and supernatants (containing parasitic proteins) were then collected. Protein concentrations were determined using BCA assay (Bio-Rad, Hercules, CA, USA) according to the manufacturer’s instructions. For each sample, 10 µg of proteins were mixed with 4× sample buffer (10 mL 50% Glycerol, 5 mL 0.5 M Tris HCl pH 6.8, 4 mL 20% SDS, 0.02% Bromophenol blue for a total solution volume of 20 mL) and 100 mM DTT and then separated on 15% SDS-PAGE gels in Laemmli running buffer. Gels were then wet-transferred O/N at 20 V onto PVDF membranes. Membranes were blocked in TBST for 1 h at room temperature. Bottom parts were then probed with histone antibodies while upper parts were probed with PFALDOLASE antibody (Abcam, ab38905, Cambridge, UK) at 1:20,000 dilution. The following primary antibodies were used: anti-H3K4me1 (Abcam, ab8895); anti-H3K4me2 (Abcam, ab35356); anti-H3K9me2 (Abcam, ab1220); anti-H3K9me3 (Millipore, 07-442, Burlington, MA, USA); anti-tetra-acetyl H4 (Millipore, 06-866); anti-H4K8Ac (Millipore, 07-328); anti-H4K20me3 (Abcam, ab9053); anti-H3K4me3 (Diagenode) and anti-H3K9Ac (Millipore, 07-352) at 1:10,000. The following secondary antibodies were used: anti-rabbit IgG-Peroxidase produced in goat (Sigma-Aldrich) or anti-mouse IgG-Peroxidase (Sigma-Aldrich); at 1:20,000 dilutions. Blots were developed using ECL Prime Western Blotting (GE Healthcare, Chicago, IL, USA) and read on a Chemidoc touch imaging software. Densitometry analysis was performed by using ImageLab software from Bio-Rad. To determine if variations in histone abundances were statistically significant, immunoblotting experiments were performed on 3 biological replicates and each run was performed twice.

H3K4me2 = assay: as above; assay type: cell-based, Plasmodium falciparum; settings: 700nM DHA alone, F32-ART ring stage; 3 replicates (Fig 3D)
Description: as §3

H4ac4 = assay: as above; assay type: cell-based, Plasmodium falciparum; settings: 700nM DHA alone, F32-ART ring stage; 3 replicates (Fig 3D)
Description: as §3

H3K4me3 = assay: as above; assay type: cell-based, Plasmodium falciparum; settings: 700nM DHA alone, F32-ART ring stage; 3 replicates (Fig 3D)
Description: as §3

H4K20me3 = assay: as above; assay type: cell-based, Plasmodium falciparum; settings: 700nM DHA alone, F32-ART ring stage; 3 replicates (Fig 3D)
Description: as §3

H4K8ac = assay: as above; assay type: cell-based, Plasmodium falciparum; settings: 700nM DHA alone, F32-ART ring stage; 3 replicates (Fig 3D)
Description: as §3

[4] = F32-TEM, 48 h incubation, SYBR Green I, mean ± SEM of 3 experiments (* mean of 2)
[5] = F32-ART, 48 h incubation, SYBR Green I, mean ± SEM of 3 experiments (* mean of 2)

Compound	IC50 [1, 4]	CC50 [2]	IC50 [3, 5]	Selectivity Index CC50/IC50 [3]	also measured
COc1ccc([N+](=O)[O-])c(C2Oc3ccccc3C(=O)C2(Cl)[N+](=O)[O-])c1 (centres unmarked) [Flv880]	> 10 µM	> 50 µM	> 10 µM		
CC1=NN(C2CCC(C(=O)O)CC2)C(=O)C1=Cc1ccc(-c2cc(C)c(C)cc2[N+](=O)[O-])o1 (centres unmarked) [C646]					IC50 ([1]; F32, 48 h): > 10 µM; IC50 ([3]; F32, 48 h): > 10 µM
Cc1sc2c(c1C)C(c1ccc(Cl)cc1)=N[C@@H](CC(=O)NCC13CC4CC(CC(C4)C1)C3)c1nnc(C)n1-2 [SHH-878-1]	10 µM	3 µM	10 µM	0.3	
Cc1sc2c(c1C)C(c1ccc(Cl)cc1)=N[C@@H](CC(=O)OC(C)(C)C)c1nnc(C)n1-2 [(+)-JQ-1]	> 10 µM	0.2 µM	> 10 µM	<0.02	
C[C@]1([N+](=O)[O-])C(=O)c2ccccc2O[C@@H]1c1ccccc1[N+](=O)[O-] (relative stereo) [MLo1302]	8 µM	6.5 µM	7 µM	0.9	
Cc1noc(C)c1-c1ccc2c(c1)nc(CCc1ccc(O)cc1)n2CCN1CCOCC1 [AKE-040]	> 10 µM	24 µM	> 10 µM	<2.4	
C[C@H]1[C@@H](O)O[C@@H]2O[C@@]3(C)CC[C@H]4[C@H](C)CC[C@@H]1[C@@]24OO3 [DHA, Dihydroartemisinin]					Fold change of H3K4me1 abundance, DHA vs DMSO (H3K4me1): 1.02 and 1.53 and 1.51; Fold change of H3K4me2 abundance, DHA vs DMSO (H3K4me2): 1.36 and 1.49 and 1.08; Fold change of H4ac4 abundance, DHA vs DMSO (H4ac4): increased level and 2.04 and 2.38 and 1.70; Fold change of H3K4me3 abundance, DHA vs DMSO (H3K4me3): 0.71 and 0.98 and 0.76; Fold change of H4K20me3 abundance, DHA vs DMSO (H4K20me3): increase and 1.51 and 1.65; Fold change of H4K8ac abundance, DHA vs DMSO (H4K8ac): increased level and 2.03 and 2.07 and 2.15
O=C1c2ccccc2O[C@H](c2ccccc2[N+](=O)[O-])[C@@]1(Br)[N+](=O)[O-] (relative stereo) [MLo1507]	> 10 µM	40 µM	> 10 µM	<4	
COc1ccc([N+](=O)[O-])c(C2Oc3ccccc3C(=O)C2(Br)[N+](=O)[O-])c1 (centres unmarked) [MLo1508]	> 10 µM	36 µM	> 10 µM	<3.6	
O=C1c2ccccc2OC(c2ccccc2)C1[N+](=O)[O-] (centres unmarked) [MLo1406]	> 10 µM	> 50 µM	> 10 µM		
O=C1c2ccccc2OC(c2ccccc2)C1(Br)[N+](=O)[O-] (centres unmarked) [MLo1502]	> 10 µM	> 50 µM	> 10 µM		
O=C1c2ccccc2O[C@H](c2ccccc2[N+](=O)[O-])[C@@]1(Cl)[N+](=O)[O-] (relative stereo) [Flv69]	> 10 µM	> 50 µM	> 10 µM		
C[C@@H]1CC[C@H]2[C@@H](C)C(=O)O[C@@H]3O[C@@]4(C)CC[C@@H]1[C@]32OO4 [artemisinin, Artemisinin]	0.013 ± 0.003 µM	> 100 µM			
COc1cccc(C2Oc3ccccc3C(=O)C2(Cl)[N+](=O)[O-])c1 (centres unmarked) [NFlav2018]	> 10 µM	> 50 µM	> 10 µM		
O=C1c2ccccc2O[C@H](c2ccccc2)[C@]1(F)[N+](=O)[O-] (relative stereo) [MLo1401]	> 10 µM	20 µM	> 10 µM	<2	
O=C1c2ccccc2O[C@H](c2ccccc2F)[C@@]1(Br)[N+](=O)[O-] (relative stereo) [MLo1509]	> 10 µM	> 50 µM	> 10 µM		
